Measured values: patent publication US4621057A (Noda Institute for Scientific Research, priority 1983, dated 1986)
Where a name gives a salt, the structure may show the parent alone.

Legend:
Assay type in all cases: biochemical, Pseudomonas sp. No. 15-1
[1] = tested on: N-acetylhexosamine oxidase; assay: Activity inhibition by metalic ion or inhibitor; settings: for inhibition of enzyme activity (in words): 1.8mM metalic ion
[2] = tested on: N-acetylhexosamine oxidase; assay: Action and specificity for substrate; settings: in the presence of oxygen
Description: As shown in the following reaction formula, the present enzyme oxidizes N-acetylhexosamine in the presence of oxygen to form N-acetylhexosaminic acid and hydrogen peroxide.

[3] = tested on: N-acetylhexosamine oxidase; assay: Activity stabilization by bovine serum albumin in heat treatment; settings: 1 mg/ml in potassium phosphate buffer solution of pH 6.8; 10 minutes heat treatment
Description: Further, in 10 minutes heat treatment at 45° C., the present enzyme is stable between pH 3 and pH 9 and loses its activity rapidly at a more acidic region and slowly at a more alkaline region. In this experiment, the hydrogen peroxide method was adopted, and the residual activity of the present enzyme subjected to 10 minutes heat treatment in a potassium phosphate buffer solution of pH 6.8 at each temperature was compared with the residual activity of the same enzyme subjected to the same treatment in a potassium phosphate buffer solution of pH 6.8 containing 1 mg/ml of bovine serum albumin.

[4] = 1.8mM metalic ion or inhibitor, tris-hydrochloric acid buffer solution of pH 7.5
[5] = tris-hydrochloric acid buffer solution of pH 7.5

Row | Compound | Residual activity (%) [1, 4] [%] | inhibition of enzyme activity (in words) [1, 5] | other results
1 | O=[N+]([O-])[O-].[Ag+] [AgNO3] |  |  | Residual activity (%) ([1]; 1.8mM, Phosphate buffer solution): 5%
2 | [Ca+2].[Cl-].[Cl-] [CaCl2] | 91 |  | 
3 | O=S(=O)([O-])[O-].[Cd+2] [CdSO4] | 52 | considerably | 
4 | O=S(=O)([O-])[O-].[Co+2] [CoSO4] | 75 |  | 
5 | O=S(=O)([O-])[O-].[Cu+2] [CuSO4] | 74 |  | 
6 | O=C(O)CN(CCN(CC(=O)O)CC(=O)O)CC(=O)O [EDTA, Etheylenediaminetetracetic acid sodium salt] |  |  | Residual activity (%) ([1]; pH 7.5): 87%
7 | O=S(=O)([O-])[O-].[Fe+2] [FeSO4] | 15 | inhibited greatly | 
8 | NC(=O)CI [ICH2 CONH2] | 90 |  | 
9 | O=S(=O)([O-])[O-].[Mg+2] [MgSO4] | 86 |  | 
10 | O=S(=O)([O-])[O-].[Mn+2] [MnSO4] | 84 |  | 
11 | CC(=O)N[C@H]1[C@H]([C@H](O)[C@H](O)CO)OC(O)(C(=O)O)C[C@@H]1O (stereo partly shown) [N-acetylneuraminic acid] |  |  | action of the enzyme on the substrate [2]: hardly acts or does not all act
12 | O=S(=O)([O-])[O-].[Ni+2] [NiSO4] | 64 | considerably | 
13 | c1cnc2c(c1)ccc1cccnc12 [O'--Phenanthroline] | 81 |  | 
14 | O=C(O)c1cc[c]([Hg][Cl])cc1 [PCMB, pChloromercurybenzoate] | 67 |  | 
15 | CC(=O)[O-].CC(=O)[O-].[Pb+2] [Pb(CH3 COO)2] | 42 | considerably | 
16 | CCCCCCCCCCCCOS(=O)(=O)[O-].[Na+] [SDS, Sodium dodecylsulfate] | 87 |  | 
17 | O=S(=O)([O-])[O-].[Zn+2] [ZnSO4] | 2 | inhibited greatly | 
18 | HgCl2 | 17 | inhibited greatly | 
19 | bovine serum albumin |  |  | effect of addition on enzyme activity [3]: stabilized and moreover slightly enhanced
